Results on one molecule are retold here after patent publication US20070065803A1, “Patterns for a skeletal system” (CENTRE NATIONAL DE LA RECHERCHE SCIENTIFIQUE, priority 2003, published 2007).

This assay relates to osteoclasts derived from RAW-GFP deposited onto a layer of MC3T3-type osteoblast cells. Briefly: Crossing of the osteoblast layer by osteoclasts in the bone system model (confocal microscopy). It is filed as cell-based, murine. The note with it: PP2 at 10 μM; untreated osteoclasts cross the layer after 1 hour to 1 hour 30 min; FIG. 4. How it is done:
FIG. 4, images obtained by confocal microscopy 3D analysis, showing the organization of the two cell types according to the section along Z, in order to determine the effects of PP2 (FIG. 4B) in comparison with the control trial (FIG. 4A).
Cells of the murine osteoblast line MC 3T3 are placed in culture in α-MEM medium supplemented with 10% by volume of fetal calf serum, 10^−8M dexamethasone and 0.028 mM ascorbic acid. The cells are then detached and seeded at confluence onto the mineralized support.
The osteoclasts derived from human or murine primary cultures or from lines (for example, the RAW line or the human line GCT23) are obtained after 7 days of differentiation as described in Destaing et al. (Mol Biol Cell, Podosomes display actin turnover and dynamic self-organization in osteoclasts expressing actin-green fluorescent protein, 14(2):407-16, 2003). The osteoclast precursors are cultured in the presence of α-MEM medium supplemented with 10% by volume of fetal calf serum and of two recombinant cytokines: M-CSF and RANK-L ([…]). The cells are placed at 37° C. and 5% of CO2 and the medium is changed every two days for 7-8 days. The differentiated osteoclasts are detached with a solution of EDTA at 0.25 mM diluted in 1×PBS. The osteoclasts are seeded at a density of 10 cells/mm^2.
An inhibitor of the Src tyrosine kinase, PP2, was tested in the model according to the invention. […]

Consider `CC(C)(C)n1nc(-c2ccc(Cl)cc2)c2c(N)ncnc21` [PP2], for which the “crossing (invasion) of the osteoblast cell layer by the osteoclasts” value is “the osteoclasts no longer cross the osteoblast cell layer”.
